Measured values as given in patent US11000033B2, “Ketone or oxime compound, and herbicide” (NISSAN CHEMICAL CORPORATION, priority 2014, dated 2021).

Experiments:
Format in all cases: in vivo
Monochoria vaginalis = assay: Test Example 2: herbicidal activity, application during weed generation in submerged conditions (symbol C); conditions: Table 23; application herbicide amount 320 g/ha; grade 0-5 by criteria of Test Example 1
How it was run: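 Weeds emerging under flooded conditions were treated with compound formulated as an emulsion and diluted with water to the intended herbicide amount, poured onto the surface of 4 cm standing water. Seeds had been co-sown in alluvial soil; plants grew at 25° C. to 30° C. and were assessed after 3 weeks.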

Abutilon theophrasti = assay: Test Example 4: herbicidal effect by soil treatment (symbol M); conditions: 320 g/ha
How it was run: (§1)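 Seeds were sown in sterilized diluvial soil, covered with about 1.5 cm of soil, and the soil surface was sprayed with a water-diluted emulsion of the compound at a predetermined rate. Plants grew in a greenhouse at 25° C. to 30° C.; effects were scored visually 3 weeks after application.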

soybean = assay: Test Example 4: effect on crop by soil treatment (symbol d); conditions: 320 g/ha
How it was run: (§2)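 The test used sterilized diluvial soil. Seed was set down in spots and overlaid with about 1.5 cm of soil before growth in a greenhouse kept at 25° C. to 30° C.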

wheat = assay: Test Example 4: effect on crop by soil treatment (symbol e); conditions: 320 g/ha
How it was run: as §2

Veronica persica = assay: Test Example 4: herbicidal effect by soil treatment (symbol R); conditions: 320 g/ha
How it was run: as §1

Scirpus juncoides = assay: Test Example 1: herbicidal activity, application before weed generation in submerged conditions (symbol B); conditions: application herbicide amount 320 g/ha
How it was run: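 Flooded alluvial soil (4 cm water) was mixed-sown with the three weed species, and 2.5-leaf rice seedlings were transplanted. On sowing day, a water-diluted emulsion at a predetermined rate was applied to the water surface. After 3 weeks in a 25–30 °C greenhouse, effect was scored 0–5.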

Setaria viridis = assay: Test Example 4: herbicidal effect by soil treatment (symbol G); conditions: 320 g/ha
How it was run: as §1

Alopecurus myosuroides [1] = assay: Test Example 5: herbicidal effect by foliage application, plastic box (symbol J); conditions: 320 g/ha, 3 weeks after application
How it was run: (§3)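 Sowing in sterilized diluvial soil, 14 days' greenhouse growth at 25° C. to 30° C., then uniform small-sprayer foliar application of aqueous emulsion dilution; plants scored three weeks afterwards.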

Digitaria ciliaris = assay: Test Example 5: herbicidal effect by foliage application, plastic box (symbol F); conditions: 320 g/ha, 3 weeks after application
How it was run: as §3

rice plant = assay: Test Example 5: effect on crop by foliage application, plastic box (symbol b); conditions: 320 g/ha, 3 weeks after application
How it was run: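 Crop seed is sown alongside grass and broadleaf weed species in spots in sterilized diluvial soil, then covered to a depth of about 1.5 cm. Plants grow in a greenhouse kept at 25° C. to 30° C.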

Apera spica-venti = assay: Test Example 4: herbicidal effect by soil treatment (symbol L); conditions: 320 g/ha
How it was run: as §1

Chenopodium album = assay: Test Example 5: herbicidal effect by foliage application, plastic box (symbol O); conditions: 320 g/ha, 3 weeks after application
How it was run: as §3

Avena fatua = assay: Test Example 4: herbicidal effect by soil treatment (symbol I); conditions: 320 g/ha
How it was run: as §1

Stellaria media = assay: Test Example 4: herbicidal effect by soil treatment (symbol P); conditions: 320 g/ha
How it was run: as §1

Alopecurus myosuroides [2] = assay: Test Example 4: herbicidal effect by soil treatment (symbol J); conditions: 320 g/ha
How it was run: as §1

rice = assay: Test Example 4: effect on crop by soil treatment (symbol b); conditions: 320 g/ha
How it was run: as §2

[3] = tested on: Echinochloa crus-galli var. crus-galli; assay: Test Example 5: herbicidal effect by foliage application, plastic box (symbol H); conditions: 320 g/ha, 3 weeks after application
How it was run: as §3

| SMILES | Herbicidal effect grade, C: Monochoria vaginalis (Monochoria vaginalis) | M: Abutilon theophrasti, herbicidal effect grade (Abutilon theophrasti) | d: soybean, effect grade on crop (soybean) | e: wheat, effect grade on crop (wheat) | R: Veronica persica, herbicidal effect grade (Veronica persica) | Herbicidal effect grade, B: Scirpus juncoides (Scirpus juncoides) | G: Setaria viridis, herbicidal effect grade (Setaria viridis) | J: Alopecurus myosuroides, herbicidal effect (criteria 0-5) (Alopecurus myosuroides [1]) | F: Digitaria ciliaris, herbicidal effect (criteria 0-5) (Digitaria ciliaris) | b: directly sowed rice plant, effect on crop (criteria 0-5) (rice plant) | L: Apera spica-venti, herbicidal effect grade (Apera spica-venti) | O: Chenopodium album, herbicidal effect (criteria 0-5) (Chenopodium album) | I: Avena fatua, herbicidal effect grade (Avena fatua) | P: Stellaria media, herbicidal effect grade (Stellaria media) | J: Alopecurus myosuroides, herbicidal effect grade (Alopecurus myosuroides [2]) | b: directly sowed rice plant, effect grade on crop (rice) | H: Echinochloa crus-galli var. crus-galli, herbicidal effect (criteria 0-5) [3] |
| --- | --- | --- | --- | --- | --- | --- | --- | --- | --- | --- | --- | --- | --- | --- | --- | --- | --- |
| CC(CC1CC(O)=C(c2c(C)cc(C)cc2C)C1=O)=NOCC1CC1(F)F (stereo not drawn) [1-109] | 2 (Herbicidal ratio of 20% or higher and lower than 40%) | 4 (Herbicidal ratio of 70% or higher and lower than 90%) | 0 (Herbicidal ratio of 5% or lower (almost no effect)) | 2 (Herbicidal ratio of 20% or higher and lower than 40%) | 2 (Herbicidal ratio of 20% or higher and lower than 40%) | 5 (Herbicidal ratio of 90% or more (almost completely withered)) | 5 (Herbicidal ratio of 90% or more (almost completely withered)) | 5 (Herbicidal ratio of 90% or more (almost completely withered)) | 5 (Herbicidal ratio of 90% or more (almost completely withered)) | 5 (Herbicidal ratio of 90% or more (almost completely withered)) | 5 (Herbicidal ratio of 90% or more (almost completely withered)) | 3 (Herbicidal ratio of 40% or higher and lower than 70%) | 2 (Herbicidal ratio of 20% or higher and lower than 40%) | 0 (Herbicidal ratio of 5% or lower (almost no effect)) | 5 (Herbicidal ratio of 90% or more (almost completely withered)) | 5 (Herbicidal ratio of 90% or more (almost completely withered)) | 5 (Herbicidal ratio of 90% or more (almost completely withered)) |
| CC(CC1CC(O)=C(c2c(C)cc(C)cc2C)C1=O)=NOCC1OCCO1 (stereo not drawn) [1-111] | 0 (Herbicidal ratio of 5% or lower (almost no effect)) | 4 (Herbicidal ratio of 70% or higher and lower than 90%) | 1 (Herbicidal ratio of 5% or higher and lower than 20%) | 5 (Herbicidal ratio of 90% or more (almost completely withered)) | 0 (Herbicidal ratio of 5% or lower (almost no effect)) | 2 (Herbicidal ratio of 20% or higher and lower than 40%) | 5 (Herbicidal ratio of 90% or more (almost completely withered)) | 5 (Herbicidal ratio of 90% or more (almost completely withered)) | 5 (Herbicidal ratio of 90% or more (almost completely withered)) | 5 (Herbicidal ratio of 90% or more (almost completely withered)) | 5 (Herbicidal ratio of 90% or more (almost completely withered)) | 1 (Herbicidal ratio of 5% or higher and lower than 20%) | 3 (Herbicidal ratio of 40% or higher and lower than 70%) | 0 (Herbicidal ratio of 5% or lower (almost no effect)) | 5 (Herbicidal ratio of 90% or more (almost completely withered)) | 5 (Herbicidal ratio of 90% or more (almost completely withered)) | 5 (Herbicidal ratio of 90% or more (almost completely withered)) |
| CC(CC1CC(O)=C(c2c(C)cc(C)cc2C)C1=O)=NOCCS(C)(=O)=O (stereo not drawn) [1-110] | 0 (Herbicidal ratio of 5% or lower (almost no effect)) | 0 (Herbicidal ratio of 5% or lower (almost no effect)) | 0 (Herbicidal ratio of 5% or lower (almost no effect)) | 5 (Herbicidal ratio of 90% or more (almost completely withered)) | 0 (Herbicidal ratio of 5% or lower (almost no effect)) | 0 (Herbicidal ratio of 5% or lower (almost no effect)) | 5 (Herbicidal ratio of 90% or more (almost completely withered)) | 5 (Herbicidal ratio of 90% or more (almost completely withered)) | 5 (Herbicidal ratio of 90% or more (almost completely withered)) | 5 (Herbicidal ratio of 90% or more (almost completely withered)) | 5 (Herbicidal ratio of 90% or more (almost completely withered)) | 2 (Herbicidal ratio of 20% or higher and lower than 40%) | 4 (Herbicidal ratio of 70% or higher and lower than 90%) | 0 (Herbicidal ratio of 5% or lower (almost no effect)) | 5 (Herbicidal ratio of 90% or more (almost completely withered)) | 5 (Herbicidal ratio of 90% or more (almost completely withered)) | 5 (Herbicidal ratio of 90% or more (almost completely withered)) |
